# Reference: US9988341B2, “Bacterial topoisomerase inhibitors and use thereof” (THE FLORIDA INTERNATIONAL UNIVERSITY BOARD OF TRUSTEES, priority 2016, dated 2018)
# How the values were obtained:
# E. coli topoisomerase I = E. coli topoisomerase I (Escherichia coli, UniProt P06612); assay: Bacterial topoisomerase I relaxation activity inhibition assay (EcTopI); assay type: biochemical
# Experimental: The relaxation activity of bacterial topoisomerase I was assayed in a buffer containing 10 mM Tris-HCl, pH 8.0, 50 mM NaCl, 0.1 mg/mL gelatin, and 0.5 mM MgCl2. One microliter of the compounds dissolved in DMF (dimethylformamide) or solvent alone was mixed with 10 μl of the reaction buffer containing 10 ng of enzyme before the addition of 9 μl of reaction buffer containing 160 ng of supercoiled pBAD/Thio plasmid DNA purified by cesium chloride gradient as substrate. Following incubation at 37° C. for 30 min, the reactions were terminated by the addition of 4 μl of 50% glycerol, 50 mM EDTA, and 0.5% (v/v) bromophenol blue, and analyzed by agarose gel electrophoresis. The gels were stained in ethidium bromide and photographed under UV light.
# [1] = target: M. tuberculosis topoisomerase I (Mycobacterium tuberculosis, UniProt P9WG49); assay: biochemical; conditions: Table 3; read-out: MtbTopI IC50
# M. tuberculosis topoisomerase I, sequence (P9WG49 whole entry): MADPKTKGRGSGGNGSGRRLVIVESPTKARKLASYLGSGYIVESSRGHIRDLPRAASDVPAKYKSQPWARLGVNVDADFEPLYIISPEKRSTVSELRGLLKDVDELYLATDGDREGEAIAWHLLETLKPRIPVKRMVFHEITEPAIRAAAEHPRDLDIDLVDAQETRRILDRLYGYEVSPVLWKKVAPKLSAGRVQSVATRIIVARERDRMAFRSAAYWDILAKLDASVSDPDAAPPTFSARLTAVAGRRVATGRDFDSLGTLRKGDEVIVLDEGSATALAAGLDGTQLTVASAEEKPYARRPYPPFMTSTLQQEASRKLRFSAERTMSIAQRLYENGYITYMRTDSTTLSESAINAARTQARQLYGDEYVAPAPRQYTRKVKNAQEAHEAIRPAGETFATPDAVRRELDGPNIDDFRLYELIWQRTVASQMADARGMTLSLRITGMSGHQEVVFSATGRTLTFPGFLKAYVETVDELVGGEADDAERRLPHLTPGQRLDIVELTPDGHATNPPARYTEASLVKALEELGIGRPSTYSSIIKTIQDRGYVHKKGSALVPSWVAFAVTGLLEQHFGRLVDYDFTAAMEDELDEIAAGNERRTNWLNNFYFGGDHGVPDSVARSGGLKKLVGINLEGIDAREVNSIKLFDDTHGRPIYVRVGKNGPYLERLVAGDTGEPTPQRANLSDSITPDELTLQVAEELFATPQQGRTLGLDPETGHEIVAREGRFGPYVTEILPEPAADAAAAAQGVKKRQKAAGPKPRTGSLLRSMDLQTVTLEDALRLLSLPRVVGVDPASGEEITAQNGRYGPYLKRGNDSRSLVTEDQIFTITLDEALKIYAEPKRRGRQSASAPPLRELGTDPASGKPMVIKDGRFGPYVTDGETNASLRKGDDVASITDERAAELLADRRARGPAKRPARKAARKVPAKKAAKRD
# M. smegmatis mc2 155 = assay: M. smegmatis growth inhibition (MIC); assay type: cell-based; conditions: Mycolicibacterium smegmatis, MC2155
# Mtb-lux = assay type: cell-based, M. tuberculosis
# [2] = system: M. smegmatis mc2 155/pTA-noI; assay: microbe, parasite or virus in culture; assay type: cell-based; conditions: Mycolicibacterium smegmatis, MC2155, read-out: MIC, M. smegmatis mc2 155/pTA-noI
# Mtb CDC1551 Mtb::lux = assay: microbe, parasite or virus in culture; assay type: cell-based, M. tuberculosis; conditions: Mycobacterium tuberculosis, 120 h; 50% reduction in luminescence signal compared to controls; 5 days
# [3] = Resazurin-based cytotoxicity assay; conditions: mouse, J774 macrophages, 50% loss of viability in J774 macrophage cell line after 24 hr exposure
# Experimental: (§1) J774 macrophages were cultured in Dulbeco's minimal essential medium (DMEM) supplemented with 10% heat inactivated fetal bovine serum. One day prior to performing the assay 2.5×10^4 cells were seeded on black 384 well. Compounds and controls (0.4% DMSO and 2% Triton X final concentrations) were added 6 hr after seeding. Survival was determined after 24 hr by resazurin reduction measurement. Addition of 0.02 mg/mL resazurin was followed by 4 hours incubation at 37° C. and subsequent fluorescence reading (530 nm/590 nm) using a Synergy H4 (BioTek) plate reader. Data are presented as a percent viability compared to the vehicle (0.4% DMSO) control with 100% being noncytotoxic.
# J774 macrophages = assay: Resazurin-based cytotoxicity assay; conditions: 50% loss of viability in J774 macrophage cell line after 24 hr exposure
# Experimental: as §1
# MtbTopI = MtbTopI (Mycobacterium tuberculosis, UniProt P9WG49); assay: Anisotropy assay of DNA binding by MtbTopI; conditions: compounds at their IC50 concentrations
# Mtb::lux = assay type: cell-based, M. tuberculosis; conditions: at higher concentrations; data not shown
# M. smegmatis = M. smegmatis loss of viability (viable colony counts); assay type: cell-based
# HEK = HEK toxicity
# E. coli DNA gyrase = target: T1, E. coli DNA gyrase (Escherichia coli, UniProt P0AES4+P0AES6); assay: DNA gyrase supercoiling inhibition assay; assay type: biochemical
# T1 construct: purchased New England BioLabs
# T1 sequence (P0AES4 whole entry, one chain of several): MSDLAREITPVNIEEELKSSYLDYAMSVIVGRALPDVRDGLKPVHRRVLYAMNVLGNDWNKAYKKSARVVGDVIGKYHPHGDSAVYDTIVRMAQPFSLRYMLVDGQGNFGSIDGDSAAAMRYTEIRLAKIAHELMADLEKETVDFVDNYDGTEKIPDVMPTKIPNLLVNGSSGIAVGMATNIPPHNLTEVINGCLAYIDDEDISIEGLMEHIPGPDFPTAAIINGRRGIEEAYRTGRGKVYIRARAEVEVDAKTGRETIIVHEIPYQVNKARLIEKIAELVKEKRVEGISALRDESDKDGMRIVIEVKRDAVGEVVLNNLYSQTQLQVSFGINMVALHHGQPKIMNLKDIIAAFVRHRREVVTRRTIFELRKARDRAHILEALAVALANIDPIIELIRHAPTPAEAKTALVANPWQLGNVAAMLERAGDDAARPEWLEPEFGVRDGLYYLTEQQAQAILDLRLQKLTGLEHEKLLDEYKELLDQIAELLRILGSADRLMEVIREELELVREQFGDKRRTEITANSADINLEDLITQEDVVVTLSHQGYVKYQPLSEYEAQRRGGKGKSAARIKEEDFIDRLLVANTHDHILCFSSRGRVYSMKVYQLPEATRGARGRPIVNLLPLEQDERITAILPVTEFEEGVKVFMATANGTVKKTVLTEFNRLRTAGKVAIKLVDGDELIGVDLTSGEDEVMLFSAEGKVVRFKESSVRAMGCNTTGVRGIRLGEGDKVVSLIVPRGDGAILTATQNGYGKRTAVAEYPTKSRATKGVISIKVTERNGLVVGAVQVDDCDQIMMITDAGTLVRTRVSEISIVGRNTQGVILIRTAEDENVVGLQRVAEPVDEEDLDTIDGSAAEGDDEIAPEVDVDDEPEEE
# Experimental: DNA gyrase (obtained from New England BioLabs) supercoiling assays were carried out by mixing the compounds with 2 U of the enzyme in reaction buffer supplied by the manufacturer, followed by the addition of 300 ng of relaxed covalently closed circular DNA was for a final reaction volume of 20 μL. The samples were incubated at 37° C. for 30 minutes before being terminated by the addition of a buffer containing 5% SDS, 0.25% bromophenol blue, and 25% glycerol. The reactions were then analyzed by agarose gel electrophoresis.
# Human topoisomerase I = target: T2, Human topoisomerase I (Homo sapiens, UniProt P11387); assay: Human topoisomerase I relaxation inhibition assay; assay type: biochemical
# T2 construct: purchased TopoGen
# T2 sequence (P11387 1-765): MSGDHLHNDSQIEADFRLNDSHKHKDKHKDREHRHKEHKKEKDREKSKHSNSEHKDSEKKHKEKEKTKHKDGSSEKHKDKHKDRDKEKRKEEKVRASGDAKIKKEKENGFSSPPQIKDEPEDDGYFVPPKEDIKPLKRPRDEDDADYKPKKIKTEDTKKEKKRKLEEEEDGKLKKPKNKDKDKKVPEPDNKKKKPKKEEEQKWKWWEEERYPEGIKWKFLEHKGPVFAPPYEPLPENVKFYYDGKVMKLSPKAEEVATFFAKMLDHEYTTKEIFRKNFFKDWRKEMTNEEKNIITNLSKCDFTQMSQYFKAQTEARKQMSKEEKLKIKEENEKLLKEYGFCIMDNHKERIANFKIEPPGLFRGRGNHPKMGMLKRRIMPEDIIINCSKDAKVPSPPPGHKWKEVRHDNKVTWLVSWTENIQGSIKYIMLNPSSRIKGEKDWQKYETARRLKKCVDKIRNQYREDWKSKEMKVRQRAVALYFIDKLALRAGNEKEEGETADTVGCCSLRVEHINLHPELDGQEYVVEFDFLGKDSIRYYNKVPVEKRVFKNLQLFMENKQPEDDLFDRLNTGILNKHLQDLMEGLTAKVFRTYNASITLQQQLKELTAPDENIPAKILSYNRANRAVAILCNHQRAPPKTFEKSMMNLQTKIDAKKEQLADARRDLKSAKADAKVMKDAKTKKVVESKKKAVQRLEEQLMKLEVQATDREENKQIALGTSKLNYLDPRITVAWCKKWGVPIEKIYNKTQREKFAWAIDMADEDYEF
# Experimental: Human topoisomerase I (obtained from TopoGen) relaxation assays were carried out with 0.5 U of enzyme in reaction buffer supplied by the manufacturer. The enzyme was mixed with the indicated concentration of compound dissolved before 160 ng of supercoiled pBAD/Thio plasmid DNA was added in the same buffer, for a final volume of 20 μL. Following incubation at 37° C. for 30 minutes, the reactions were terminated with a buffer containing 5% SDS, 0.25% bromophenol blue, and 25% glycerol, and analyzed by agarose gel electrophoresis.
# Human Topoisomerase IIα = target: T3, Human Topoisomerase IIα (Homo sapiens, UniProt P11388); assay: Human topoisomerase IIα decatenation inhibition assay; assay type: biochemical
# T3 construct: purchased TopoGen
# T3 sequence (P11388 whole entry): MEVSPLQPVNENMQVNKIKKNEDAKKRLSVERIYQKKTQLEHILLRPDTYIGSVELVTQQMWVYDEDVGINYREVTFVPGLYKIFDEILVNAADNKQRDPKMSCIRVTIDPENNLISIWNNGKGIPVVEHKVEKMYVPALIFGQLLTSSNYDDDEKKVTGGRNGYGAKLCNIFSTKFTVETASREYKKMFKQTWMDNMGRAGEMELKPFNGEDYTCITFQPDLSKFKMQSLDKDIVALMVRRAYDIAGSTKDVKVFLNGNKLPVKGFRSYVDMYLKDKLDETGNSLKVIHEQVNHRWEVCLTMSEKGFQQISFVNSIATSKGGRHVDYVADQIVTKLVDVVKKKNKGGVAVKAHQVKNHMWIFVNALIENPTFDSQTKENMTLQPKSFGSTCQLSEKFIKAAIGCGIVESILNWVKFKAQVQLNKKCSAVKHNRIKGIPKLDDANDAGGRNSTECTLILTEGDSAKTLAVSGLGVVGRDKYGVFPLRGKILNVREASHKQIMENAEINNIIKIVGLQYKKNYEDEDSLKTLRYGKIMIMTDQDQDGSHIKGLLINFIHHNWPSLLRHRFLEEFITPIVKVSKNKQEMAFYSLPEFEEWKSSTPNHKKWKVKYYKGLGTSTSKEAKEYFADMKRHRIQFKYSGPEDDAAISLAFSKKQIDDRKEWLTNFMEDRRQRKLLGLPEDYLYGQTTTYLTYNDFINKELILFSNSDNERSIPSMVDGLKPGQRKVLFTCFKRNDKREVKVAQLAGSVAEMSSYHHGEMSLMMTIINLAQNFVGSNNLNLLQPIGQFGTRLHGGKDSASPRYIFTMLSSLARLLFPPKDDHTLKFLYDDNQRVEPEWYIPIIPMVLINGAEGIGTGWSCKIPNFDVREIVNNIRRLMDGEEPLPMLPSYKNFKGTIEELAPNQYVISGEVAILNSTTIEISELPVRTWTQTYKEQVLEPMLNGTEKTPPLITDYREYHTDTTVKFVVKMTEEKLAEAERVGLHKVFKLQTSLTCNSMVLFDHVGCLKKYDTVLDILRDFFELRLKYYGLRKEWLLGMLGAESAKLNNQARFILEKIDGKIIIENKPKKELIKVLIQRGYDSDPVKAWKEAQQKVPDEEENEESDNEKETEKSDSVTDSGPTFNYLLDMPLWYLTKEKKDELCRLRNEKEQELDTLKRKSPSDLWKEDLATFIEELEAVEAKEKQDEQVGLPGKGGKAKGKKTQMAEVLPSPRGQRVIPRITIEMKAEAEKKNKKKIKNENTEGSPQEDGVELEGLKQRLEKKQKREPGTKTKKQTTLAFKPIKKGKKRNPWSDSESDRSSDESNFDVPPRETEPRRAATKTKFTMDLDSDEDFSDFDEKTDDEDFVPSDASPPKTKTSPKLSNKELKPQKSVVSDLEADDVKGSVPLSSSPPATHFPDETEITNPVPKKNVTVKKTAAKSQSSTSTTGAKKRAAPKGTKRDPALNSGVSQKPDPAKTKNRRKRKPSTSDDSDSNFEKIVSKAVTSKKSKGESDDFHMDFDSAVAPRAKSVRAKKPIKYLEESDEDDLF
# Experimental: Human Topoisomerase IIα (obtained from TopoGen) assays were carried out by adding the compounds to 180 ng of kinetoplast DNA (kDNA) in the buffer supplied by the manufacturer before the addition of 2 U of the enzyme. The samples were incubated for 15 minutes at 37° C. before the addition of 4 μl of stop buffer containing 5% sarkosyl, 0.0025% bromophenol blue, and 25% glycerol. The reactions were then analyzed by electrophoresis in 1% agarose gels containing 0.5 μg ml^−1 ethidium bromide before being photographed under UV light.
# E. coli topoisomerase I, sequence (P06612 whole entry): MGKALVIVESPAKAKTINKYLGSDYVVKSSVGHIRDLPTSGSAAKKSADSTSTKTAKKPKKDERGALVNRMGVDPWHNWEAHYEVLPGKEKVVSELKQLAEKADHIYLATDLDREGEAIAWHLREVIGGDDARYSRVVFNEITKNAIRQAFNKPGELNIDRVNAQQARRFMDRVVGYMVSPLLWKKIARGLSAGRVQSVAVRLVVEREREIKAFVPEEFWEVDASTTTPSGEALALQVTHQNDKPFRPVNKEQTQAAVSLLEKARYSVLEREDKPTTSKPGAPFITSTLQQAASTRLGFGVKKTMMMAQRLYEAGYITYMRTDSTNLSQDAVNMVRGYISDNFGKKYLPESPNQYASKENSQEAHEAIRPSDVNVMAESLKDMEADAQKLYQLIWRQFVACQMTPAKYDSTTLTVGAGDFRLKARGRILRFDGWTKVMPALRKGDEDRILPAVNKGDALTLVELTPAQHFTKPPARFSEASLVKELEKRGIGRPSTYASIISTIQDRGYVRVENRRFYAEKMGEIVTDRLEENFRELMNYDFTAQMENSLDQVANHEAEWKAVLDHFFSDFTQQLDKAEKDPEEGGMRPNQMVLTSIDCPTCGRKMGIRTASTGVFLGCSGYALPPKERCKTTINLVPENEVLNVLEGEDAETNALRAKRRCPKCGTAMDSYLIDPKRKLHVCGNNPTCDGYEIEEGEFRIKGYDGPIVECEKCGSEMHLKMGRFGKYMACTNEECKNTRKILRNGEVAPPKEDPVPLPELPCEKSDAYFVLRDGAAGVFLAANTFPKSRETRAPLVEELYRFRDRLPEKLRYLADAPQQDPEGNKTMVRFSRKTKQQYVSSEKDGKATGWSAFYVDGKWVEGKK
SMILES,IC50 (E. coli topoisomerase I) [µM],IC50 [1] [µM],MIC (M. smegmatis mc2 155) [µM],Percent Mtb-lux killing 5 μg/mL (Mtb-lux) [%],MIC [2] [µM],IC50 (Mtb CDC1551 Mtb::lux) [µM],CC50 at 24 h [3] [µM],CC50 (J774 macrophages) [µM],Effect on binding of MtbTopI to oligonucleotide substrate (MtbTopI),Reduction of Mtb CFU (Mtb::lux) [log],"Time course of loss of viable colony counts, control cloning vector (M. smegmatis)",Percent HEK toxicity 6.25 μg/mL (HEK) [%],IC50 (E. coli DNA gyrase) [µM],IC50 (Human topoisomerase I) [µM],IC50 (Human Topoisomerase IIα) [µM]
"CCCC[C@@H](CN[C@H](CN)CCCCNC)NCc1cccc2ccccc12 [Compound 2471-12, (S)—N6-methyl-N2-((S)-2-(naphthalen-1-ylmethylamino)hexyl)hexane-1,2,6-triamine]",7.5,7.5,25,70.9,12.5,6.8,~100,104,did not inhibit,1,rapid killing,15.2,–,–,–
"CCCC[C@@H](CN[C@H](CN)CCN)NCc1cccc2ccccc12 [Compound 2471-24, (S)—N2-((S)-2-(naphthalen-1-ylmethylamino)hexyl)butane-1,2,4-triamine]",10,7.5,50,64.3,25,8.4,~100,101,–,1,–,5.4,> 160,> 160,–
CCCC[C@@H](CN[C@@H](CN)CCCCNC)NCc1cccc2ccccc12 [Compound 2471-36],20,15,25,99.2,–,3.3,~40,36.5,–,–,–,15.3,> 160,> 160,> 160
